Assay [1] has as its target recombinant wild-type FintCSP1 (Frankliniella intonsa, UniProt A0A891LVF4). The assay can be described thus: Fluorescence (1-NPN) binding and competitive binding assay, wild-type FintCSP1. The following applies: wild-type FintCSP1. How it is done:
FintCSP1 and FoccCSP DNA were released from pEASY-T1/FintCSP1 and pEASY-T1/FoccCSP, respectively, by restriction digestion with BamHI and XhoI and cloned into the pET-30a vector (Invitrogen). The resulting construct was transformed into Transetta (DE3) Escherichia coli competent cells (Transgen). The production of recombinant FintCSP1 and FoccCSP was induced by addition of isopropyl-β-D-1-thiogalactopyranoside (IPTG, 0.2 mM) at 15°C and purified by Ni ion affinity chromatography (Sangon Biotech, Shanghai, China). The target protein was verified by 15% SDS-PAGE, and its concentration was determined with a BCA protein assay kit (Thermo Scientific, Rockford, IL, USA). The recombinant purified protein was stored at −20°C until use.
The binding affinity of FintCSP1 and FoccCSP to the fluorescent probe N-phenyl-1-naphthylamine (1-NPN) was tested using a Spectramax M2 fluorescence spectrometer (Molecular Devices, USA) as reported previously. […] The 1-NPN/FintCSP1 or 1-NPN/FoccCSP mixture was excited at 280 nm, and the emission spectra were recorded at 415 nm. The binding constants (Kd) of FintCSP1 or FoccCSP to 1-NPN were calculated by Scatchard analysis using Prism 5 software (GraphPad, La Jolla, CA, USA). Assuming a protein activity of 100% and that the volatile compound binds to the protein in a 1:1 ratio at saturation, the dissociation constants (Ki) of FintCSP1 or FoccCSP for each ligand were calculated according to the IC50 (the concentration when the ligand replaces 50% of the probe) value of the volatile compounds. The Ki values were calculated according to the following equation: Ki = [IC50]/(1 + [1-NPN]/K1-NPN), where [1-NPN] is the free concentration of 1-NPN, and K1-NPN is the Kd of the 1-NPN/FintCSP1 or 1-NPN/FoccCSP.

Another assay has as its system F. intonsa. The experiment in a line: Y-tube olfactometer preference test. The assay is classed as in vivo, Frankliniella intonsa. As for the experimental part: F. intonsa and F. occidentalis preference tests of plant volatile cues were performed using a glass Y-tube olfactometer according to the method described by Wang et al. (2014) with minor modifications. A Y-shaped tube (1-cm inner diameter) consisted of a central tube (10 cm in length) and two arms (10 cm in length, offset by 60°) connected to two different glass odor bottles. One glass odor bottle was 50 cm in height, with a 10-cm inner diameter that contained pepper plants (14-day post-viral infection); the other glass odor bottle was 5 cm in height, with a 3-cm inner diameter for plant VOCs. The airflow in the olfactometer (200 mL/min) was filtered through activated carbon and calibrated using a flow meter at the end of each arm. To remove all visual cues, the Y-tube was positioned horizontally in a black airtight cubic box (90 cm × 60 cm × 40 cm). The tested odor sources (pepper plant VOCs) were enclosed in the odor bottles 5 min prior to each test to allow the odors to fill the arms. Thrips (2-day-old, starved for 1 h) were individually placed in the central tube and allowed to choose between the two arms. When the thrips had climbed over 2/3 of the side arm and stayed there for more than 30 s, it was considered to have made a selection. If the thrips had not made a choice after being placed in the straight arm for 5 min, the insect behaviour was scored as “no selection,” and it was not counted in the total data. The direction of the Y-tube arms and the silicone tubes were adjusted after five tested thrips to eliminate the influence of position. The Y-tube was replaced after 10 tested thrips to eliminate the possible influence of existing odors on thrips behaviour. Each treatment consisted of 20 thrips, with three replicates per treatment.
The FintCSP1, FintCSP2, FintOBP, FintOR, FoccCSP, and enhanced green fluorescent protein (EGFP) coding sequences were obtained from GenBank under accession numbers MT199111, MT211602, OK067245, MT211603, AEP27186.1, and U55761.1, respectively. Primers were designed using Primer Premier 5.0, and the T7 promoter sequence (5′-[…]-3′) was added to the 5′ end of each primer (S1 Table). DNA fragments containing T7 promoter sequences were amplified by PCR using pEASY-T1/target gene or pUC-EGFP (preserved in the laboratory) plasmid DNA as template. Then, a double-stranded RNA (dsRNA) was produced from each target gene using the HiScribe T7 Quick High Yield RNA Synthesis Kit (New England Biolabs) according to the manufacturer’s instructions. […]

The next assay deals with F. occidentalis. The assay can be described thus: Y-tube olfactometer preference test. The assay is classed as in vivo, Frankliniella occidentalis. The following applies: dsFoccCSP-injected; vs liquid paraffin control. As for the experimental part:
F. intonsa and F. occidentalis preference tests of plant volatile cues were performed using a glass Y-tube olfactometer according to the method described by Wang et al. (2014) with minor modifications. A Y-shaped tube (1-cm inner diameter) consisted of a central tube (10 cm in length) and two arms (10 cm in length, offset by 60°) connected to two different glass odor bottles. One glass odor bottle was 50 cm in height, with a 10-cm inner diameter that contained pepper plants (14-day post-viral infection); the other glass odor bottle was 5 cm in height, with a 3-cm inner diameter for plant VOCs. The airflow in the olfactometer (200 mL/min) was filtered through activated carbon and calibrated using a flow meter at the end of each arm. To remove all visual cues, the Y-tube was positioned horizontally in a black airtight cubic box (90 cm × 60 cm × 40 cm). The tested odor sources (pepper plant VOCs) were enclosed in the odor bottles 5 min prior to each test to allow the odors to fill the arms. Thrips (2-day-old, starved for 1 h) were individually placed in the central tube and allowed to choose between the two arms. […] If the thrips had not made a choice after being placed in the straight arm for 5 min, the insect behaviour was scored as “no selection,” and it was not counted in the total data. […]

In a further assay the test system is Anagrus nilaparvatae. Also on record: method as in PMID 31300659. The following applies: 1:20,000 dilution; cited from earlier work.

Chain of recombinant wild-type FintCSP1 (A0A891LVF4 entry or part of it): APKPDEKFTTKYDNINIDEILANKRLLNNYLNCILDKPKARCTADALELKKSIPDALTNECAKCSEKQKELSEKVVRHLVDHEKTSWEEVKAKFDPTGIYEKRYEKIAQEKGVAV

One may read the IC50 as the concentration that gives 50% inhibition. Usually Ki stands for the dissociation constant of the complex between target and ligand, obtained from inhibition or displacement. For `CC/C=C\CC=O` [cis-3-hexenal], the “binding affinity to FintCSP1 (in words)” value in assay [1] (competitive fluorescence binding assay, classes of Ki) is “moderate binding affinity”. Also, in assay [1] (displacement of 1-NPN, protein and 1-NPN both 2 μM, 50 mM Tris-HCl pH 7.4, read-out: IC50), the IC50 came out at 36.2 ± 1 µM. The Ki in assay [1] (displacement of 1-NPN, protein and 1-NPN both 2 μM, pH 7.4, calculated from IC50, read-out: Ki) was 28.7 ± 0.79 µM. The “individuals that recognized the compound” value in the assay on F. intonsa (dsEGFP-treated F. intonsa, vs liquid paraffin control) stood at 73.3%. Further, the “preference of FintCSP1-silenced thrips (in words)” value in the assay on F. intonsa (dsFintCSP1-injected F. intonsa, vs liquid paraffin control) is listed as “no preference”. Moreover, the “preference of F. intonsa in Y-tube olfactometer (in words)” value in the assay with F. intonsa (volatile compound vs liquid paraffin control, n = 60) is recorded as “reached statistical significance”. Besides, in the assay with F. occidentalis, the “preference of dsFoccCSP-silenced F. occidentalis (in words)” value was “no clear preference”. The “attraction of Anagrus nilaparvatae (in words)” value in the assay on Anagrus nilaparvatae is “attracts Anagrus nilaparvatae”.
